How the values were obtained:
Mus musculus = species: Mus musculus; assay: Inhibition of Interleukin IL-1 at 10 µM in the Eurofins-Panlabs radioligand binding assay (Eurofins_assay_243520); design: ligand concentration 0.1 nM; conditions: Compound concentration 10.0 uM
[1] = biological target: Serine/threonine-protein kinase Chk2 (Homo sapiens) (UniProt O96017); assay: CHK2 (h) Millipore kinase activity assay; conditions: Compound concentration 1.0 uM
[2] = biological target: Delta-type opioid receptor (Homo sapiens) (UniProt P41143); conditions: Compound concentration 10.0 uM
[3] = biological target: Focal adhesion kinase 1 (Homo sapiens) (UniProt Q05397); assay: FAK (h) Millipore kinase activity assay; conditions: Compound concentration 1.0 uM
[4] = biological target: Hepatocyte growth factor receptor (Homo sapiens, UniProt P08581); assay: Met (h) Millipore kinase activity assay; conditions: Compound concentration 1.0 uM
[5] = biological target: Neuropeptide Y receptor type 1 (Homo sapiens) (UniProt P25929); assay: Inhibition of Neuropeptide Y Y1 at 10 µM in the Eurofins-Panlabs radioligand binding assay (Eurofins_assay_257010); conditions: Compound concentration 10.0 uM
[6] = biological target: Protein kinase C delta type (Homo sapiens) (UniProt Q05655); assay: PKCdelta (h) Millipore kinase activity assay; conditions: Compound concentration 1.0 uM
[7] = biological target: Ribosomal protein S6 kinase beta-1 (Homo sapiens) (UniProt P23443); assay: p70S6K (h) Millipore kinase activity assay; conditions: Compound concentration 1.0 uM
[8] = biological target: GABA-A receptor; anion channel (Rattus norvegicus) (UniProt O09028+P15431+P18506+P18508+P19969+P20236+P23574+P23576+P28471+P28473+P30191+P62813+P63079+P63138+Q91ZM7+Q9ES14); assay: Inhibition of GABAA, Muscimol, Central at 10 µM in the Eurofins-Panlabs radioligand binding assay (Eurofins_assay_226500); type: protein-complex assay; conditions: Compound concentration 10.0 uM
[9] = biological target: Serine/threonine-protein kinase MARK2 (Homo sapiens) (UniProt Q7KZI7); assay: PAR-1Balpha (h) Millipore kinase activity assay; conditions: Compound concentration 1.0 uM
[10] = biological target: Sodium-dependent dopamine transporter (Homo sapiens) (UniProt Q01959); conditions: Compound concentration 10.0 uM
[11] = biological target: Protein kinase C alpha type (Homo sapiens) (UniProt P17252); assay: PKCalpha (h) Millipore kinase activity assay; conditions: Compound concentration 1.0 uM
[12] = biological target: Activated CDC42 kinase 1 (Homo sapiens) (UniProt Q07912); assay: ACK1 (h) Millipore kinase activity assay; conditions: Compound concentration 1.0 uM
[13] = biological target: ATP-sensitive inward rectifier potassium channel 11 (Cricetulus griseus) (UniProt A0A3L7HHE1); assay: Inhibition of Potassium Channel [KATP] at 10 µM in the Eurofins-Panlabs radioligand binding assay (Eurofins_assay_265600); conditions: Cricetinae; Compound concentration 10.0 uM
[14] = biological target: Histamine H3 receptor (Homo sapiens) (UniProt Q9Y5N1); conditions: Compound concentration 10.0 uM
Sequence of Histamine H3 receptor (Homo sapiens) (Q9Y5N1 whole entry): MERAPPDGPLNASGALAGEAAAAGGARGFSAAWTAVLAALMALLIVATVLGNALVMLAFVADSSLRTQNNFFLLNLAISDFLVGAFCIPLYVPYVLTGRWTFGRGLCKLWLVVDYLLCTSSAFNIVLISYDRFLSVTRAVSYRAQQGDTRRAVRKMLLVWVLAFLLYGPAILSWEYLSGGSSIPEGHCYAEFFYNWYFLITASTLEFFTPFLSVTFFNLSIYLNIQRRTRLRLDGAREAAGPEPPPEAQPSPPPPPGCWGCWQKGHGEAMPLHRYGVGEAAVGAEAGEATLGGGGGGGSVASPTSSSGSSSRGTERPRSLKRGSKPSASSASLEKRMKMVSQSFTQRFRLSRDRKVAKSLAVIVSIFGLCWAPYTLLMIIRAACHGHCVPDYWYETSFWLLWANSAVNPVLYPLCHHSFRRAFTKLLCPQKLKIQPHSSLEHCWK

[15] = biological target: Kappa-type opioid receptor (Homo sapiens) (UniProt P41145); conditions: Compound concentration 10.0 uM
[16] = biological target: Tyrosine-protein kinase ABL2 (Homo sapiens) (UniProt P42684); assay: Arg (h) Millipore kinase activity assay; conditions: Compound concentration 1.0 uM
[17] = biological target: G protein-coupled receptor kinase 3 (Homo sapiens) (UniProt P35626); conditions: Compound concentration 1000.0 nM
[18] = biological target: Phosphatidylinositol 4,5-bisphosphate 3-kinase catalytic subunit gamma isoform (Homo sapiens) (UniProt P48736); conditions: Compound concentration 1000.0 nM
[19] = biological target: Wee1-like protein kinase 2 (Homo sapiens) (UniProt P0C1S8); conditions: Compound concentration 1000.0 nM
[20] = system: Mast/stem cell growth factor receptor Kit (Homo sapiens), P10721 [A829P]; conditions: Compound concentration 1000.0 nM
[21] = biological target: Myosin light chain kinase 2, skeletal/cardiac muscle (Homo sapiens) (UniProt Q9H1R3); conditions: Compound concentration 1000.0 nM
[22] = biological target: Cyclin-dependent kinase 16 (Homo sapiens) (UniProt Q00536); conditions: Compound concentration 1000.0 nM
[23] = system: Phosphatidylinositol 4,5-bisphosphate 3-kinase catalytic subunit alpha isoform (Homo sapiens), P42336 [E542K]; conditions: Compound concentration 1000.0 nM
[24] = biological target: Receptor-interacting serine/threonine-protein kinase 1 (Homo sapiens) (UniProt Q13546); conditions: Compound concentration 1000.0 nM
[25] = biological target: Ribosomal protein S6 kinase alpha-5 (Homo sapiens) (UniProt O75582); conditions: Compound concentration 1000.0 nM
[26] = system: Epidermal growth factor receptor (Homo sapiens), P00533 [G719S]; conditions: Compound concentration 1000.0 nM
[27] = biological target: Phosphatidylinositol 4,5-bisphosphate 3-kinase catalytic subunit beta isoform (Homo sapiens) (UniProt P42338); conditions: Compound concentration 1000.0 nM
[28] = system: Receptor-type tyrosine-protein kinase FLT3 (Homo sapiens), P36888 [UNDEFINED MUTATION]; conditions: Compound concentration 1000.0 nM
[29] = biological target: BDNF/NT-3 growth factors receptor (Homo sapiens) (UniProt Q16620); conditions: Compound concentration 1000.0 nM
Sequence of BDNF/NT-3 growth factors receptor (Homo sapiens) (Q16620 32-822 limits assumed): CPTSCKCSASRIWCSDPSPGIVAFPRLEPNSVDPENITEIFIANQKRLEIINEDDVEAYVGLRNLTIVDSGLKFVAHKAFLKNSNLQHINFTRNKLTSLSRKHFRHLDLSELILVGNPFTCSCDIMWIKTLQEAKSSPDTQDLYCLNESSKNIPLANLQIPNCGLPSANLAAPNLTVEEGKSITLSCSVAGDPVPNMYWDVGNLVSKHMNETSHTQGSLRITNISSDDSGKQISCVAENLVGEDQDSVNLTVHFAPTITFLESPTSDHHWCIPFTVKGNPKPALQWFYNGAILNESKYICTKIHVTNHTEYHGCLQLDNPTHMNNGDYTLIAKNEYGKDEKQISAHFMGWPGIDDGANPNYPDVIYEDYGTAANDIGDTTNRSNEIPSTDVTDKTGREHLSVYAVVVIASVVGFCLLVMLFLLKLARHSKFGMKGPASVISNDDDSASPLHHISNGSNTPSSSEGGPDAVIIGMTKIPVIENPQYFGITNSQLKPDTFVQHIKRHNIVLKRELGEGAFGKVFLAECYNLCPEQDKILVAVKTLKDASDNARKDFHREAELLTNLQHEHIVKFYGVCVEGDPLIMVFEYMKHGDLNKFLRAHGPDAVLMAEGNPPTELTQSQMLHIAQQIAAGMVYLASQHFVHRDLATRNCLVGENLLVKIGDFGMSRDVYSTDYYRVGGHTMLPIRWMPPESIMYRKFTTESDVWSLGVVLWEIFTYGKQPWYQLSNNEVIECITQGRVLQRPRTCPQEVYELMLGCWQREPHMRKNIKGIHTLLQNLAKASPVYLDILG

[30] = biological target: Ephrin type-B receptor 6 (Homo sapiens) (UniProt O15197); conditions: Compound concentration 1000.0 nM
[31] = biological target: Ephrin type-B receptor 4 (Homo sapiens) (UniProt P54760); conditions: Compound concentration 1000.0 nM
Sequence of Ephrin type-B receptor 4 (Homo sapiens) (P54760 whole entry): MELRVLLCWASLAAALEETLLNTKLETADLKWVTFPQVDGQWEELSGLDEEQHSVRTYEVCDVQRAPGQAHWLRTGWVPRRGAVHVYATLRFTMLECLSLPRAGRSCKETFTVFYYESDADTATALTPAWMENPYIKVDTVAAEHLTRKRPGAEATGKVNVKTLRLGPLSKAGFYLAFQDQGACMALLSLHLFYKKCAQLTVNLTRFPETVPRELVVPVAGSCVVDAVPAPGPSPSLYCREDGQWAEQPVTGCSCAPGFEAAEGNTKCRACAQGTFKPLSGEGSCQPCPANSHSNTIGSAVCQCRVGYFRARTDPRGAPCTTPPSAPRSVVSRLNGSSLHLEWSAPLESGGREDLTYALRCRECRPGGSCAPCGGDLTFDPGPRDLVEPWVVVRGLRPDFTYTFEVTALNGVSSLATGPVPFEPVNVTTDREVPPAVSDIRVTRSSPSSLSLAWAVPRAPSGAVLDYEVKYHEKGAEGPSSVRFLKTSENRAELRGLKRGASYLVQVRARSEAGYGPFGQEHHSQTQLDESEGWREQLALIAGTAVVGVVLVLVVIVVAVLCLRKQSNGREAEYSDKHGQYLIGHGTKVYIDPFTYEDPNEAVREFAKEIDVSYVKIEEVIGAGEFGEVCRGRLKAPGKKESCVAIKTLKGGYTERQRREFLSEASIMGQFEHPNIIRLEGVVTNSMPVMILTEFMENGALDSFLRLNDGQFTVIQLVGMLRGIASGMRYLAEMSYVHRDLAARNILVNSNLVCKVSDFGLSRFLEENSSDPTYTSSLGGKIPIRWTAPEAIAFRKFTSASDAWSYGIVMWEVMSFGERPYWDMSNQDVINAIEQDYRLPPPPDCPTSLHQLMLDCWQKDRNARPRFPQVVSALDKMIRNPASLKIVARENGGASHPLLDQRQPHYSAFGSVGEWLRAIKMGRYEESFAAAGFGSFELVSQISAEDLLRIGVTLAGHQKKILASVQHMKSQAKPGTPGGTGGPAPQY

[32] = biological target: Eukaryotic translation initiation factor 2-alpha kinase 1 (Homo sapiens) (UniProt Q9BQI3); conditions: Compound concentration 1000.0 nM
[33] = biological target: Serine/threonine-protein kinase SIK1 (Homo sapiens) (UniProt P57059); conditions: Compound concentration 1000.0 nM
[34] = biological target: Mitogen-activated protein kinase kinase kinase 19 (Homo sapiens) (UniProt Q56UN5); conditions: Compound concentration 1000.0 nM
[35] = system: Mast/stem cell growth factor receptor Kit (Homo sapiens), P10721 [V559D,T670I]; conditions: Compound concentration 1000.0 nM
Sequence of Mast/stem cell growth factor receptor Kit (Homo sapiens), P10721 [V559D,T670I] (P10721 whole entry V559D/T670I): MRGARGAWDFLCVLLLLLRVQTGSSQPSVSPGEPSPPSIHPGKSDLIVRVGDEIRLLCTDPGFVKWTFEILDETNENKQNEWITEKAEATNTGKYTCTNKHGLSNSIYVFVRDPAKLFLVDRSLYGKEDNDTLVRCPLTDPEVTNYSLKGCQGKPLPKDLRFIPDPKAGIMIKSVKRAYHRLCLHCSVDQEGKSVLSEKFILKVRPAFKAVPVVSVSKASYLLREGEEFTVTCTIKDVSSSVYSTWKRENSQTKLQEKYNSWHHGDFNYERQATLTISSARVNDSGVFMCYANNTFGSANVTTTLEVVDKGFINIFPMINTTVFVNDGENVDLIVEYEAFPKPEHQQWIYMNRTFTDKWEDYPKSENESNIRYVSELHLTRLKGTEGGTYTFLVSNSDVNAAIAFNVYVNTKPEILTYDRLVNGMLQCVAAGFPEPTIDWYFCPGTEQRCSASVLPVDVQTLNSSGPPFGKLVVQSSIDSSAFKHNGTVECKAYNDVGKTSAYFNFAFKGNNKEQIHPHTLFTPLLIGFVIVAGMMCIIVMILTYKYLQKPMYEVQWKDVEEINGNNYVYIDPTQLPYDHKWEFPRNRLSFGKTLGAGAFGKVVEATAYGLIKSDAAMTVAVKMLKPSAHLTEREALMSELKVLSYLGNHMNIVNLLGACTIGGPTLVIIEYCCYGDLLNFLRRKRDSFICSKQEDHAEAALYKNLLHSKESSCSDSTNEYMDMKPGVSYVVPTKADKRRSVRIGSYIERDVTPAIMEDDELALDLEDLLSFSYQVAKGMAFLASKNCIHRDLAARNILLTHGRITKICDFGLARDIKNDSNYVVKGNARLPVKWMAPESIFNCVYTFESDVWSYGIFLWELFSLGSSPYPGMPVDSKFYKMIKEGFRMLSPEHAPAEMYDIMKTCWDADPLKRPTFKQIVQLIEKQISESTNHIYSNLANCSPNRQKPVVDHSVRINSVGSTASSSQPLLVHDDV

[36] = system: ALK tyrosine kinase receptor (Homo sapiens), Q9UM73 [L1196M]; conditions: Compound concentration 1000.0 nM
[37] = biological target: Serine/threonine-protein kinase PknB (Mycobacterium tuberculosis) (UniProt P9WI81); conditions: Compound concentration 1000.0 nM
Sequence of Serine/threonine-protein kinase PknB (Mycobacterium tuberculosis) (P9WI81 whole entry): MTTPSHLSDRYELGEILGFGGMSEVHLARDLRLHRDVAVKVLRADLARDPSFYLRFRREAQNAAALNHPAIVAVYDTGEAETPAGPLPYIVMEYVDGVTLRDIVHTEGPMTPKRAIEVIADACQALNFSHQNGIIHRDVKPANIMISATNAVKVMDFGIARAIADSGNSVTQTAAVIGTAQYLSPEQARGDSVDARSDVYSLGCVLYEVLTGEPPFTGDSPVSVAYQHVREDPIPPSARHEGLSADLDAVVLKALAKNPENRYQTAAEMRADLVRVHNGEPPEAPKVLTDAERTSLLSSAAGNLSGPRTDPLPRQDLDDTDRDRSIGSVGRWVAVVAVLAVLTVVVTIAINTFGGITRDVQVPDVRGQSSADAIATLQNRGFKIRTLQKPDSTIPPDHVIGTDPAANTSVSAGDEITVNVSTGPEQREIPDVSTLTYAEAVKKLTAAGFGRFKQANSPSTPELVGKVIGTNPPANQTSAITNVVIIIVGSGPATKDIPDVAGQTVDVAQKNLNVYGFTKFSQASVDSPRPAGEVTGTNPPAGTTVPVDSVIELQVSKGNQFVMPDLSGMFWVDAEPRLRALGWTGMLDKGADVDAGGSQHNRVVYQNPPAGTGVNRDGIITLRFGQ

[38] = biological target: Ribosomal protein S6 kinase alpha-2 (Homo sapiens) (UniProt Q15349); conditions: Compound concentration 1000.0 nM
[39] = system: Mast/stem cell growth factor receptor Kit (Homo sapiens), P10721 [D816V]; conditions: Compound concentration 1000.0 nM
Sequence of Mast/stem cell growth factor receptor Kit (Homo sapiens), P10721 [D816V] (P10721 whole entry D816V): as the sequence (P10721 whole entry V559D/T670I) above, with D559V, I670T, D816V counted along it

[40] = biological target: Mitogen-activated protein kinase kinase kinase 2 (Homo sapiens) (UniProt Q9Y2U5); conditions: Compound concentration 1000.0 nM
Sequence of Mitogen-activated protein kinase kinase kinase 2 (Homo sapiens) (Q9Y2U5 whole entry): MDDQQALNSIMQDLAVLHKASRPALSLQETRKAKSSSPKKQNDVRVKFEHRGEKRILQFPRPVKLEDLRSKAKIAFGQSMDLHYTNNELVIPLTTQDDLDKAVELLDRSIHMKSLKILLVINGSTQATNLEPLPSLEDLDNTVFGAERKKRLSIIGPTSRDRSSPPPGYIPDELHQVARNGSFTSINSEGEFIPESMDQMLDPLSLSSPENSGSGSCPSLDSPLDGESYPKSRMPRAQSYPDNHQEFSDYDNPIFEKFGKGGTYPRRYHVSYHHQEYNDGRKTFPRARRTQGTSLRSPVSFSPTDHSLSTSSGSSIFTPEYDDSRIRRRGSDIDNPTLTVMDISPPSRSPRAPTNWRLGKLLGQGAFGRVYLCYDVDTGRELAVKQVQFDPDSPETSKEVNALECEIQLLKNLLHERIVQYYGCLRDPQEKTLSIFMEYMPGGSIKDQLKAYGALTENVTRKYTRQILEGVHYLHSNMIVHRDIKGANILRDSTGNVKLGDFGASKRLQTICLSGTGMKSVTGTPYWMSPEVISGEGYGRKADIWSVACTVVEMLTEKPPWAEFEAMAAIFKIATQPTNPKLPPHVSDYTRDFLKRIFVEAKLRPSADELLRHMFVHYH

[41] = biological target: Protein-tyrosine kinase 2-beta (Homo sapiens) (UniProt Q14289); conditions: Compound concentration 1000.0 nM

Sequence of Serine/threonine-protein kinase Chk2 (Homo sapiens) (O96017 whole entry): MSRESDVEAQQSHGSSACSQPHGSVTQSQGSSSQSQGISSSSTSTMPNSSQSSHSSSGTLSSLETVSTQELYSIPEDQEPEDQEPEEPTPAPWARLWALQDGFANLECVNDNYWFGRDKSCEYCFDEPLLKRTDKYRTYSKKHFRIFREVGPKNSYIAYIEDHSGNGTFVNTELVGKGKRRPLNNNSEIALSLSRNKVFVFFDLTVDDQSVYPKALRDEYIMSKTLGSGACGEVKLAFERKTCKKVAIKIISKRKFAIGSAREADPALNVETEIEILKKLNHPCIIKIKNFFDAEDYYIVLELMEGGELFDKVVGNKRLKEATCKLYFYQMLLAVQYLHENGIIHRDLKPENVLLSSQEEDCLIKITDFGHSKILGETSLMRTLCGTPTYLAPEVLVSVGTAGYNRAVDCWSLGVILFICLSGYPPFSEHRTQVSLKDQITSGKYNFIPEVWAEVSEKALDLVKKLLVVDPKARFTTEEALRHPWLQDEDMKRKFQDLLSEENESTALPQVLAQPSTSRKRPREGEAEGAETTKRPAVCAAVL

CC1=C(C#N)C(c2ccc3[nH]nc(C)c3c2)C(C#N)=C(C)N1 [BAY-474]
inactive: inhibition (Mus musculus) 0% | inhibition [1] 4% | inhibition [2] 9% | inhibition [3] 11% | inhibition [4] 82% | inhibition [5] 1% | inhibition [6] 2% | inhibition [7] -3% | inhibition [8] 10% | inhibition [9] 26% | inhibition [10] 0% | inhibition [11] 18% | inhibition [12] 2% | inhibition [13] 9% | inhibition [14] -6% | inhibition [15] 7% | inhibition [16] 26%

CC1=C(C#N)[C@@H](c2ccc3[nH]nc(C)c3c2)C(C#N)=C(c2ccc(Cl)cc2)N1 [BAY-827]
inactive: residual activity [17] 85.3% | residual activity [18] 100% | residual activity [19] 100% | residual activity [20] 100% | residual activity [21] 91.4% | residual activity [22] 88.9% | residual activity [23] 78.6% | residual activity [24] 94.6% | residual activity [25] 100% | residual activity [26] 86.8% | residual activity [27] 100% | residual activity [28] 100% | residual activity [29] 85.2% | residual activity [30] 100% | residual activity [31] 100% | residual activity [32] 100% | residual activity [33] 100% | residual activity [34] 100% | residual activity [35] 84.4% | residual activity [36] 100% | residual activity [37] 100% | residual activity [38] 100% | residual activity [39] 100% | residual activity [40] 72.2% | residual activity [41] 100%
